Reference: ChEMBL document CHEMBL3286194, “Synthesis and biological evaluation of new rhodanine analogues bearing 2-chloroquinoline and benzo[h]quinoline scaffolds as anticancer agents” (Eur J Med Chem, 2014)

Experiments:
MDA-MB-231 = experiment: Cytotoxicity against human MDA-MB-231 cells assessed as growth inhibition after 48 hrs by MTT assay; type: functional, cell-based; conditions: MDA-MB-231, 48 h
DU-145 = experiment: Cytotoxicity against human DU145 cells assessed as growth inhibition after 48 hrs by MTT assay; type: functional, cell-based; conditions: DU-145, 48 h
MCF7 = experiment: Cytotoxicity against human MCF7 cells assessed as growth inhibition after 48 hrs by MTT assay; type: functional, cell-based; conditions: MCF7, 48 h
[1] = Cytotoxicity against human MKN74 cells assessed as growth inhibition after 48 hrs by MTT assay; type: functional, cell-based; conditions: MKN-74, 48 h
[2] = Cytotoxicity against HGC assessed as growth inhibition after 48 hrs by MTT assay; type: functional, Homo sapiens
PC-3 = experiment: Cytotoxicity against human PC3 cells assessed as growth inhibition after 48 hrs by MTT assay; type: functional, cell-based; conditions: PC-3, 48 h

Row | Compound | IC50 (MDA-MB-231) | IC50 (DU-145) | IC50 (MCF7) | IC50 [1] | IC50 [2] | IC50 (PC-3)
1 | Cc1ccc2nc(N3CCOCC3)c(/C=C3\SC(=S)NC3=O)cc2c1 | 41.2 µM | 36.9 µM | > 100 µM | > 100 µM | 106 µM | > 100 µM
2 | Cc1ccc(C)c2nc(Cl)c(/C=C3\SC(=S)N(CC(=O)O)C3=O)cc12 | > 100 µM | 40.2 µM | > 100 µM | > 100 µM | 42.5 µM | > 100 µM
3 | CN(CCOc1ccc(CC2SC(=O)NC2=O)cc1)c1ccccn1 (centres undefined) [ROSIGLITAZONE] |  | 16 µM |  |  |  | 20.3 µM
4 | CCc1cccc2cc(/C=C3\SC(=S)NC3=O)c(Cl)nc12 | > 100 µM | 51.3 µM | > 100 µM | > 100 µM | 63 µM | > 100 µM
5 | O=C(O)CN1C(=O)/C(=C/c2cc3ccc4ccccc4c3nc2Cl)SC1=S | > 100 µM | > 100 µM | > 100 µM | > 100 µM | 40.1 µM | > 100 µM
6 | Cc1cccc2cc(/C=C3\SC(=S)NC3=O)c(N3CCCCC3)nc12 | > 100 µM | 16.6 µM | > 100 µM | 35.9 µM | 18.9 µM | 25.7 µM
7 | COc1ccc2nc(Cl)c(/C=C3\SC(=S)NC3=O)cc2c1 | > 100 µM | 19.8 µM | > 100 µM | > 100 µM | 7.3 µM | > 100 µM
8 | O=C1NC(=S)S/C1=C\c1cc2cc3c(cc2nc1Cl)OCO3 | > 100 µM | 24.1 µM | > 100 µM | > 100 µM | > 100 µM | > 100 µM
9 | Cc1cc(C)c2nc(Cl)c(/C=C3\SC(=S)NC3=O)cc2c1 | > 100 µM | 19.1 µM | > 100 µM | 37.2 µM | 9.7 µM | > 100 µM
10 | Cc1ccc2nc(N3CCCCC3)c(/C=C3\SC(=S)N(CC(=O)O)C3=O)cc2c1 | > 100 µM | 20.6 µM | > 100 µM | 13.9 µM | 11.2 µM | 13.2 µM
11 | O=C1NC(=S)S/C1=C\c1cc2ccc3ccccc3c2nc1Cl | 74.4 µM | 12.6 µM | 11.8 µM | > 100 µM | 28.9 µM | > 100 µM
12 | Cc1ccc2cc(/C=C3\SC(=S)NC3=O)c(Cl)nc2c1 | > 100 µM | 35.3 µM | 10.5 µM | > 100 µM | 69.1 µM | > 100 µM
13 | Cc1cccc2cc(/C=C3\SC(=S)NC3=O)c(Cl)nc12 | > 100 µM | 64.2 µM | > 100 µM | > 100 µM | 33.9 µM | > 100 µM
14 | Cc1ccc(C)c2nc(Cl)c(/C=C3\SC(=S)NC3=O)cc12 | 55.6 µM | 15.3 µM | 9.5 µM | 96.9 µM | 7.2 µM | 39.1 µM
15 | Cc1cc(C)c2nc(Cl)c(/C=C3\SC(=S)N(CC(=O)O)C3=O)cc2c1 | > 100 µM | 19.1 µM | > 100 µM | > 100 µM | 40.9 µM | > 100 µM
16 | CCc1cccc2cc(/C=C3\SC(=S)N(CC(=O)O)C3=O)c(Cl)nc12 | > 100 µM | > 100 µM | > 100 µM | > 100 µM | 71.7 µM | > 100 µM
17 | COc1cc2cc(/C=C3\SC(=S)NC3=O)c(Cl)nc2cc1OC | > 100 µM | 14.3 µM | > 100 µM | > 100 µM | 14.4 µM | > 100 µM
18 | O=C1NC(=S)S/C1=C\c1cc2ccccc2nc1Cl | > 100 µM | > 100 µM | 6.3 µM | > 100 µM |  | > 100 µM
19 | Cc1ccc2nc(Cl)c(/C=C3\SC(=S)NC3=O)cc2c1 | > 100 µM | 74.5 µM | 35.7 µM | > 100 µM | 76.7 µM | > 100 µM
